Source: ChEMBL document CHEMBL1201862, “PubChem BioAssay data set” (2004)
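The compound was tested at five concentrations on cells cultured in 96-well plates, with a 48-hour exposure period. Abbreviation: GI50, concentration required for 50% inhibition of growth.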 Calls of active or inactive are those of the source. Rule as the data show it: active = GI50 up to about 1.1 µM and inactive = higher.

Legend:
Assay in all cases: NCI tumour cell line growth inhibition, 48 h
[1] = tested on: A498
[2] = tested on: ACHN
[3] = tested on: EKVX
[4] = tested on: HCT-116
[5] = tested on: HL-60
[6] = tested on: K562
[7] = tested on: Malme-3M
[8] = tested on: NCI-H23
[9] = tested on: OVCAR-4
[10] = tested on: OVCAR-5
[11] = tested on: RPMI-8226
[12] = tested on: SF-539
[13] = tested on: SK-MEL-28
[14] = tested on: SK-MEL-5
[15] = tested on: SR
[16] = tested on: TK-10
[17] = tested on: UO-31
[18] = tested on: NCI-H522
[19] = tested on: U-251

Structure (SMILES) | GI50 [1] | GI50 [2] | GI50 [3] | GI50 [4] | GI50 [5] | GI50 [6] | GI50 [7] | GI50 [8] | GI50 [9] | GI50 [10] | GI50 [11] | GI50 [12] | GI50 [13] | GI50 [14] | GI50 [15] | GI50 [16] | GI50 [17] | GI50 [18] | GI50 [19]
O=C1/C(=C/c2ccc(Cl)cc2)CCC1CCN1CCOCC1 (stereo not drawn) | 61.1 µM (inactive) | 60.4 µM (inactive) | > 100 µM (inactive) | 53 µM (inactive) | 23 µM (inactive) | 25.8 µM (inactive) | > 100 µM (inactive) | 86.1 µM (inactive) | 37.8 µM (inactive) | > 100 µM (inactive) | 23.8 µM (inactive) | > 100 µM (inactive) | > 100 µM (inactive) | 55.5 µM (inactive) | 26.1 µM (inactive) | > 100 µM (inactive) | 68.7 µM (inactive) | – | –
COc1ccc(CN(CCN(C)C)c2ccccn2)cc1.Cn1c(=O)c2[nH]c(Br)nc2n(C)c1=O | > 100 µM (inactive) | > 100 µM (inactive) | – | – | – | 94 µM (inactive) | > 100 µM (inactive) | > 100 µM (inactive) | – | > 100 µM (inactive) | – | > 100 µM (inactive) | > 100 µM (inactive) | > 100 µM (inactive) | – | > 100 µM (inactive) | > 100 µM (inactive) | > 100 µM (inactive) | > 100 µM (inactive)
Cc1cc(C)c(C(=O)OC(c2ccccc2)C(c2ccccc2)N2CCOCC2)c(C)c1 (stereo not drawn) | > 100 µM (inactive) | > 100 µM (inactive) | > 100 µM (inactive) | > 100 µM (inactive) | 44.6 µM (inactive) | > 100 µM (inactive) | > 100 µM (inactive) | > 100 µM (inactive) | – | – | 6.01 µM (inactive) | > 100 µM (inactive) | > 100 µM (inactive) | – | – | > 100 µM (inactive) | > 100 µM (inactive) | > 100 µM (inactive) | > 100 µM (inactive)
O=C1CCC2(c3ccc(F)cc3)Nc3ncccc3N12 (stereo not drawn) | > 100 µM (inactive) | > 100 µM (inactive) | > 100 µM (inactive) | – | > 100 µM (inactive) | > 100 µM (inactive) | > 100 µM (inactive) | > 100 µM (inactive) | > 100 µM (inactive) | > 100 µM (inactive) | > 100 µM (inactive) | > 100 µM (inactive) | > 100 µM (inactive) | > 100 µM (inactive) | – | > 100 µM (inactive) | > 100 µM (inactive) | > 100 µM (inactive) | > 100 µM (inactive)
Cc1cc(=O)n(-c2cc3cccccc-3n2)[nH]1 | 16.8 µM (inactive) | 5.87 µM (inactive) | 12.5 µM (inactive) | 2.16 µM (inactive) | 3.48 µM (inactive) | 2.74 µM (inactive) | 3.76 µM (inactive) | 4.8 µM (inactive) | – | 15.5 µM (inactive) | 8 µM (inactive) | 5.47 µM (inactive) | 4.67 µM (inactive) | 2.05 µM (inactive) | – | 7.31 µM (inactive) | 6.35 µM (inactive) | 2.68 µM (inactive) | 2.04 µM (inactive)
COc1ccc(/C(Cl)=C(\C=O)c2ccc([N+](=O)[O-])cc2)cc1 | 22.4 µM (inactive) | 18.5 µM (inactive) | 21.8 µM (inactive) | – | 3.08 µM (inactive) | 3.12 µM (inactive) | 15.6 µM (inactive) | 14 µM (inactive) | 17.5 µM (inactive) | > 100 µM (inactive) | 2.37 µM (inactive) | 12.6 µM (inactive) | 23 µM (inactive) | 13.2 µM (inactive) | – | 30.1 µM (inactive) | 18.5 µM (inactive) | 4.36 µM (inactive) | 10.5 µM (inactive)
CCOC(=O)NC(=O)c1cn(CCOC(=O)NCCCCCCNC(=O)OCCn2cc(C(=O)NC(=O)OCC)c(=O)[nH]c2=O)c(=O)[nH]c1=O | > 100 µM (inactive) | > 100 µM (inactive) | > 100 µM (inactive) | > 100 µM (inactive) | > 100 µM (inactive) | > 100 µM (inactive) | > 100 µM (inactive) | – | > 100 µM (inactive) | – | > 100 µM (inactive) | – | > 100 µM (inactive) | > 100 µM (inactive) | – | – | > 100 µM (inactive) | > 100 µM (inactive) | > 100 µM (inactive)
Nc1nc(Br)nc2ncn(C3CC(O)C(CO)O3)c12 (stereo not drawn) | > 100 µM (inactive) | 10.7 µM (inactive) | > 100 µM (inactive) | 26.4 µM (inactive) | – | 23.4 µM (inactive) | > 100 µM (inactive) | 3.76 µM (inactive) | > 100 µM (inactive) | > 100 µM (inactive) | > 90.2 µM (inactive) | 58.7 µM (inactive) | > 100 µM (inactive) | 60 µM (inactive) | – | > 100 µM (inactive) | 7.21 µM (inactive) | > 100 µM (inactive) | > 53 µM (inactive)
COC(=O)CCC(=O)Nc1cccc(C(F)(F)F)c1 | > 100 µM (inactive) | > 100 µM (inactive) | > 100 µM (inactive) | – | > 100 µM (inactive) | > 100 µM (inactive) | > 100 µM (inactive) | > 100 µM (inactive) | > 100 µM (inactive) | > 100 µM (inactive) | > 100 µM (inactive) | > 100 µM (inactive) | > 100 µM (inactive) | > 100 µM (inactive) | – | > 100 µM (inactive) | > 100 µM (inactive) | > 100 µM (inactive) | > 100 µM (inactive)
CCCCCCC(=O)C/C(=N/NC(N)=S)C(=O)NC1C2CC3CC(C2)CC1C3 (stereo not drawn) | – | > 100 µM (inactive) | > 100 µM (inactive) | > 100 µM (inactive) | > 100 µM (inactive) | – | > 100 µM (inactive) | > 100 µM (inactive) | > 100 µM (inactive) | > 100 µM (inactive) | > 100 µM (inactive) | – | > 100 µM (inactive) | > 100 µM (inactive) | – | > 100 µM (inactive) | > 100 µM (inactive) | – | > 100 µM (inactive)
Cc1cc2c(C)nn(Cc3ccc(Cl)cc3Cl)c2c(C#N)c1C | – | > 100 µM (inactive) | > 100 µM (inactive) | 69.7 µM (inactive) | > 100 µM (inactive) | – | > 100 µM (inactive) | > 100 µM (inactive) | – | > 100 µM (inactive) | > 100 µM (inactive) | > 100 µM (inactive) | > 100 µM (inactive) | – | > 100 µM (inactive) | > 100 µM (inactive) | > 100 µM (inactive) | – | > 100 µM (inactive)
C[C@@]1(CO)[C@H](O)CC[C@@]2(C)[C@H]1CC[C@H]1C[C@@H]3C[C@@]12CC[C@@]3(O)COC(=O)CN | – | 0.098 µM (active) | 16.4 µM (inactive) | – | 0.293 µM (active) | 5.55 µM (inactive) | – | 2.08 µM (inactive) | 49.8 µM (inactive) | – | 6.56 µM (inactive) | – | 100 µM (inactive) | 11.2 µM (inactive) | 0.811 µM (active) | 56.5 µM (inactive) | 4.7 µM (inactive) | – | 10.6 µM (inactive)
CN1C(=O)C2C=CC1C1CCC2N(C)C1=O (stereo not drawn) | > 100 µM (inactive) | – | > 100 µM (inactive) | > 100 µM (inactive) | > 100 µM (inactive) | > 100 µM (inactive) | > 100 µM (inactive) | > 100 µM (inactive) | > 100 µM (inactive) | > 100 µM (inactive) | > 100 µM (inactive) | > 100 µM (inactive) | > 100 µM (inactive) | > 100 µM (inactive) | – | > 100 µM (inactive) | > 100 µM (inactive) | > 100 µM (inactive) | > 100 µM (inactive)
CN1CCc2c1nc(-c1ccc(Cl)cc1)c1c2N(C)CC1 | 19.7 µM (inactive) | 6.78 µM (inactive) | 35.1 µM (inactive) | 1.85 µM (inactive) | 10.7 µM (inactive) | 9.29 µM (inactive) | > 100 µM (inactive) | 14.8 µM (inactive) | 28.4 µM (inactive) | 24.1 µM (inactive) | 9.06 µM (inactive) | 15.4 µM (inactive) | – | 10.5 µM (inactive) | – | 29.2 µM (inactive) | 10.7 µM (inactive) | – | 3.74 µM (inactive)
CC(C)(C)[Si](C)(C)OC1C(=O)C[C@H]2CCCC[C@@H]12 (stereo partly drawn) | > 100 µM (inactive) | > 100 µM (inactive) | > 100 µM (inactive) | > 100 µM (inactive) | 48.4 µM (inactive) | > 100 µM (inactive) | > 100 µM (inactive) | > 100 µM (inactive) | > 100 µM (inactive) | > 100 µM (inactive) | > 100 µM (inactive) | > 100 µM (inactive) | – | > 100 µM (inactive) | – | > 100 µM (inactive) | > 100 µM (inactive) | – | > 100 µM (inactive)
NC1CCC[C@H]1O (stereo partly drawn) | > 100 µM (inactive) | > 100 µM (inactive) | > 100 µM (inactive) | > 100 µM (inactive) | > 100 µM (inactive) | > 100 µM (inactive) | > 100 µM (inactive) | > 100 µM (inactive) | > 100 µM (inactive) | – | > 100 µM (inactive) | > 100 µM (inactive) | > 100 µM (inactive) | > 100 µM (inactive) | – | > 100 µM (inactive) | > 100 µM (inactive) | > 100 µM (inactive) | > 100 µM (inactive)
COc1cccc2c1C(=O)c1c(O)c3c(c(O)c1C2=O)C[C@@](O)(C(=O)CO)CC3OC1CC(NCCOCC(OC(C)=O)OC(C)=O)C(O)C(C)O1 (stereo partly drawn) | < 0.01 µM (active) | < 0.01 µM (active) | < 0.01 µM (active) | – | < 0.01 µM (active) | < 0.01 µM (active) | < 0.01 µM (active) | < 0.01 µM (active) | < 0.01 µM (active) | < 0.01 µM (active) | < 0.01 µM (active) | < 0.01 µM (active) | < 0.01 µM (active) | < 0.01 µM (active) | < 0.01 µM (active) | < 0.01 µM (active) | < 0.01 µM (active) | – | 0.00925 µM (active)
